Where a name gives a salt, the structure may show the parent alone.
Key:
[1] = In vivo rat PK: tafamidis in plasma, CSF and brain; set-up: species or system Male Sprague-Dawley (SD) rats; conditions: for Tafamidis CSF/Plasma Ratio (iv): iv administration of test compound; for Tafamidis CSF/Plasma Ratio over 24 hrs (po): po administration of test compound
Source text: For a compound provided herein to be an effective TTR stabilizer drug to halt and/or prevent the ocular and cerebral TTR amyloid deposition TTR amyloidosis, it has to be able to penetrate into the brain and CSF (surrogate for eye penetration) and deliver a sufficient amount of TTR stabilizer to stop TTR dissociation. A pharmacokinetic study in rat was used to evaluate the compounds. Male Sprague-Dawley (SD) rats (200-220 g weight) were acclimated for at least 2 to 3 days before being placed on study. All animals had access to certified rodent diet and water at libitum. Appropriate amount of the test compound was accurately weighed and mixed with appropriate volume of vehicle (such as DMSO/sterile water for iv dosing or 0.5% methylcellulose homogenous suspension or solution for oral administration or as a solution in a mixture NMP/PEG400/solutol/water) to administer a dose of 2, 5 or 10 mg/kg. For IV dosing the test compound was administered via tail vein or indwelling cannula. For oral dosing, the test compound was administered by oral gavage. Blood and CSF samples were collected at selected timepoints. Blood collection was performed from saphenous vein or tail vein of each animal into polypropylene tubes at each timepoint. All blood samples were transferred into EDTA-K2 tubes and centrifuged for 15 minutes at 4° C. for plasma collection. Plasma samples were kept at -80° C. until LC/MSMS analysis. CSF was collected from cisterna magna at each timepoint and quick frozen over dry ice and kept at -80° C. until LC/MSMS analysis. Brains were harvested immediately after the terminal bleeding (~ 24 hrs post dosing). The blood of the brain was perfused with normal saline. The brain was quickly picked and placed into centrifuge tube. The weight of brain samples was recorded. 4-Fold homogenization solution (MeOH/15 mM PBS (1:2)) was added into the tube according to the weighed samples. The brain was homogenized using a Polytron (3 strokes or more until homogenous, each 30 seconds) on wet ice. The samples were quick frozen over dry ice and kept at -80° C. until LC/MSMS analysis. Using a LC-MSMS method for the quantitative determination of test compound in biological matrixes, amount of test compound and active agent were measured in plasma and CSF at selected timepoints post-dosing and in brain at 24 hrs post dosing. Plasma concentration versus time data was analyzed by non-compartmental approaches using the Phoenix WinNonlin 6.3 software program. As reference, an oral dose of 2 mg/kg of tafamidis gave a CSF to plasma ratio over 24 hrs around 0.01 and a brain to plasma ratio at 24 hrs around 0.02.

[2] = In vitro rat plasma stability assay, formation of tafamidis; type: in vitro ADME; conditions: 37° C., 2 µM test compound
How it was run: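 Compound at 2 µM incubated in rat plasma at 37 °C, sampled at 0, 10, 30, 60, 120 min or 0, 60, 120, 180, 240 min. Protein precipitated, supernatant analyzed by LC-MS/MS, and percentage formation of tafamidis calculated per time point.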

[3] = In vitro rat liver S9 stability assay, formation of tafamidis; type: in vitro ADME; conditions: rat liver S9, 37° C., 1 µM test compound
Protocol: The test compound was added to liver S9 and incubated at 37° C. in a water bath at a concentration of 1 µM. At each time point (0, 5, 10, 20, 30 and 60 min), stop solution (tolbutamide plus labetalol) was added to precipitate protein and mixed thoroughly. After centrifugation, an aliquot of supernatant was analyzed by LC-MS/MS. The percentage of formation of active agent was calculated at each time point.

Structure (SMILES)	Tafamidis CSF/Plasma Ratio (iv) [1]	Formation of tafamidis at 120 min [2]	Formation of tafamidis at 60 min [3]	Tafamidis CSF/Plasma Ratio over 24 hrs (po) [1]
CN1CCC(COC(=O)c2ccc3nc(-c4cc(Cl)cc(Cl)c4)oc3c2)C1 (centres unmarked) [Compound 60, (1-methylpyrrolidin-3-yl)methyl 2-(3,5-dichlorophenyl)benzo [d] oxazole-6-carboxylate]	B (B is ≥0.015 to <0.02)	A (A is <25%)	A (A is <25%)	–
CN1CC[C@H](OC(=O)c2ccc3nc(-c4cc(Cl)cc(Cl)c4)oc3c2)C1 [Compound 58, (S)-1-methylpyrrolidin-3-yl 2-(3,5-dichlorophenyl)benzo[d] oxazole-6-carboxylate hydrochloride]	–	D (D is ≥75%)	A (A is <25%)	A (A is < 0.015)
CN1CC[C@@H](OC(=O)c2ccc3nc(-c4cc(Cl)cc(Cl)c4)oc3c2)C1 [Compound 59, (R)-1-methylpyrrolidin-3-yl 2-(3,5-dichlorophenyl)benzo[d] oxazole-6-carboxylate]	–	C (C is ≥50 to <75%)	A (A is <25%)	B (B is ≥0.015 to <0.02)
O=C(OCCCN1CCC1)c1ccc2nc(-c3cc(Cl)cc(Cl)c3)oc2c1 [Compound 39, 3-(azetidin-1-yl)propyl 2-(3,5-dichlorophenyl)benzo[d] oxazole-6-carboxylate]	B (B is ≥0.015 to <0.02)	A (A is <25%)	A (A is <25%)	–
CN1CCC(OC(=O)c2ccc3nc(-c4cc(Cl)cc(Cl)c4)oc3c2)CC1 [Compound 11]	B (B is ≥0.015 to <0.02)	A (A is <25%)	A (A is <25%)	A (A is < 0.015)
O=C(NCC(F)F)c1ccc2nc(-c3cc(Cl)cc(Cl)c3)oc2c1 [Compound 66, 2-(3,5-dichlorophenyl)-N-(2,2-difluoroethyl)benzo[d]oxazole-6-carboxamide]	–	A (A is <25%)	A (A is <25%)	C (C is ≥0.02)
O=C(OC1CCn2cncc21)c1ccc2nc(-c3cc(Cl)cc(Cl)c3)oc2c1 (centres unmarked) [Compound 156, 6,7-dihydro-5H-pyrrolo[1,2-c]imidazol-7-yl 2-(3,5-dichlorophenyl)-benzo[d]oxazole-6-carboxylate]	–	D (D is ≥75%)	C (C is ≥50 to <75%)	B (B is ≥0.015 to <0.02)
CNC(=O)c1ccc2nc(-c3cc(Cl)cc(Cl)c3)oc2c1 [Compound 87]	–	A (A is <25%)	A (A is <25%)	A (A is < 0.015)
O=C(OCCN1CCCC1)c1ccc2nc(-c3cc(Cl)cc(Cl)c3)oc2c1 [Compound 37, 2-(pyrrolidin-1-yl)ethyl 2-(3,5-dichlorophenyl)benzo[d]oxazole-6-carboxylate]	A (A is <0.015)	B (B is ≥25 to <50%)	B (B is ≥25 to <50%)	–
O=C(OCCCN1CCCC1)c1ccc2nc(-c3cc(Cl)cc(Cl)c3)oc2c1 [Compound 40, 3-(pyrrolidin-1-yl)propyl 2-(3,5-dichlorophenyl)benzo[d] oxazole-6-carboxylate]	B (B is ≥0.015 to <0.02)	B (B is ≥25 to <50%)	A (A is <25%)	–
CCN(CC)CCCOC(=O)c1ccc2nc(-c3cc(Cl)cc(Cl)c3)oc2c1 [Compound 38, 3-(diethylamino)propyl 2-(3,5-dichlorophenyl)benzo[d] oxazole-6-carboxylate]	B (B is ≥0.015 to <0.02)	B (B is ≥25 to <50%)	A (A is <25%)	B (B is ≥0.015 to <0.02)
O=C(OCC1CCOC1)c1ccc2nc(-c3cc(Cl)cc(Cl)c3)oc2c1 (centres unmarked) [Compound 85]	–	C (C is ≥50 to <75%)	C (C is ≥50 to <75%)	B (B is ≥0.015 to <0.02)
CC(OC(=O)c1ccc2nc(-c3cc(Cl)cc(Cl)c3)oc2c1)c1ccn(C)n1 (centres unmarked) [Compound 160]	–	C (C is ≥50 to <75%)	C (C is ≥50 to <75%)	A (A is < 0.015)
CC(Cn1ccnc1)OC(=O)c1ccc2nc(-c3cc(Cl)cc(Cl)c3)oc2c1 (centres unmarked) [Compound 170]	–	B (B is ≥25 to <50%)	B (B is ≥25 to <50%)	A (A is < 0.015)
Cn1ccc(COC(=O)c2ccc3nc(-c4cc(Cl)cc(Cl)c4)oc3c2)n1 [Compound 90]	–	A (A is <25%)	D (D is ≥75%)	A (A is < 0.015)
O=C(OCc1ncccn1)c1ccc2nc(-c3cc(Cl)cc(Cl)c3)oc2c1 [Compound 102]	–	B (B is ≥25 to <50%)	C (C is ≥50 to <75%)	A (A is < 0.015)
O=C(NCCF)c1ccc2nc(-c3cc(Cl)cc(Cl)c3)oc2c1 [Compound 88]	–	A (A is <25%)	A (A is <25%)	A (A is < 0.015)
CCN1CCC(OC(=O)c2ccc3nc(-c4cc(Cl)cc(Cl)c4)oc3c2)C1 (centres unmarked) [Compound 74]	–	C (C is ≥50 to <75%)	A (A is <25%)	C (C is ≥0.02)
CN1CCCC(OC(=O)c2ccc3nc(-c4cc(Cl)cc(Cl)c4)oc3c2)C1 (centres unmarked) [Compound 62]	–	B (B is ≥25 to <50%)	B (B is ≥25 to <50%)	A (A is < 0.015)
O=C(OCCN1CCS(=O)(=O)CC1)c1ccc2nc(-c3cc(Cl)cc(Cl)c3)oc2c1 [Compound 79]	–	B (B is ≥25 to <50%)	C (C is ≥50 to <75%)	A (A is < 0.015)
O=C(OCCCn1ccnc1)c1ccc2nc(-c3cc(Cl)cc(Cl)c3)oc2c1 [Compound 117]	–	B (B is ≥25 to <50%)	D (D is ≥75%)	B (B is ≥0.015 to <0.02)
O=C(OC1CCN(CC(F)(F)F)C1)c1ccc2nc(-c3cc(Cl)cc(Cl)c3)oc2c1 (centres unmarked) [Compound 151]	–	A (A is <25%)	D (D is ≥75%)	B (B is ≥0.015 to <0.02)
O=C(OC1CCN(CC(F)F)C1)c1ccc2nc(-c3cc(Cl)cc(Cl)c3)oc2c1 (centres unmarked) [Compound 144]	–	B (B is ≥25 to <50%)	C (C is ≥50 to <75%)	B (B is ≥0.015 to <0.02)
O=C(OC1CCN(Cc2ccccc2)C1)c1ccc2nc(-c3cc(Cl)cc(Cl)c3)oc2c1 (centres unmarked) [Compound 76]	–	C (C is ≥50 to <75%)	A (A is <25%)	B (B is ≥0.015 to <0.02)
CCN1CCCC(OC(=O)c2ccc3nc(-c4cc(Cl)cc(Cl)c4)oc3c2)C1 (centres unmarked) [Compound 163]	–	C (C is ≥50 to <75%)	B (B is ≥25 to <50%)	A (A is < 0.015)
O=C(OC1CCCN(CC(F)F)C1)c1ccc2nc(-c3cc(Cl)cc(Cl)c3)oc2c1 (centres unmarked) [Compound 167, 1-(2,2-difluoroethyl)piperidin-3-yl 2-(3,5-dichlorophenyl)benzo[d]oxazole-6-carboxylate]	–	C (C is ≥50 to <75%)	C (C is ≥50 to <75%)	A (A is < 0.015)

From patent US20230287021A1, “COMPOUNDS, COMPOSITIONS AND METHODS FOR STABILIZING TRANSTHYRETIN AND INHIBITING TRANSTHYRETIN MISFOLDING” (Protego Biopharma, Inc., priority 2020, published 2023)
